# Non-standard residues stand in square brackets, D forms with d. Residues, ends and D or L forms follow the SMILES beside them. Abu = CC[C@H](N)C(=O)O
# System: Fusarium culmorum (IMI 180420)
# Test: Antifungal growth inhibition microplate assay (photospectrometry)
# Type: cell-based
# Details: for antifungal activity (in words): overlapping 13- to 20-mer MPS peptides Ile26-Phe49, Cys replaced by alpha-aminobutyric acid, FIGS. 10-13; for IC50 1/2 PDB: 2 × 10^4 spores/ml; for IC50 1/2 PDB / IC50 SMF + pH5 / IC50 SMF + pH7: duplo; for F CULMORUM IC: Table 6 / FIG. 8: Rs-AFP1-based 9-mer split peptides; for F CULMORUM IC50: Table 7 / FIG. 8: Rs-AFP1-based 12-mer split peptides
# Method: The following fungal strains were used: Alternaria brassicicola (MUCL 20297), Ascophyta pisi (MUCL 30164), Botrytis cinerea (MUCL 30158), Fusarium culmorum (IMI 180420) and Verticillium dahliae (MUCL 19210).
# Fungi were grown on six cereal agar plates at room temperature and under white fluorescent light except for F culmorum and V dahliae which were grown in the dark. The duration of the spore harvest varied between 10 and 25 days depending on the strain. Spores were collected as follows. Five to ten ml of sterile milli-Q water was poured into each dish and the surface of the agar was rubbed with a sterile spatula to obtain a suspension containing mycelium and spores. This suspension was filtered through a sterile glasswool-plugged funnel and the filtrate containing the spores was collected in a sterile polypropylene centrifuge tube. The A brassicicola spores were suspended in sterile 0.1 Tween 20 (Merk, 822184) due to their hydrophobic nature. The spore suspensions were then washed twice by centrifugation at 2,400×g for 15 minutes and resuspended in a small volume of steril milli-Q water. The spore density was determined in a counting chamber and then adjusted to 4×10^7 spores per ml. Aliquots of the spore suspension were transferred to sterile microtubes and an equal volume of sterile 50% glycerol (Merck, 4091) was added to each tube so that a final spore suspension of 2×10^7 spores per ml in 25% glycerol was obtained. After careful mixing of the stock, the spore suspension was transferred in 100 μl aliquots to sterile microtubes and stored at −80° C.
# Antifungal activity was measured by photospectrometry as described by Broekaert et al, (1990, FEMS Microbiol Lett, 69:55-60). Tests were performed by adding 20 μl of test solution and 80 μl of a fungal spore suspension (2×10^4 spores/ml) per well in a sterile flat-bottom 96-well microtiterplate. The spore suspension was prepared by diluting the stock spore suspension ([…] in 25% glycerol) 1:1000 in half-strength potato dextrose broth. A positive growth control consisting of eight wells containing 20 μl of sterile milli-Q water and 80 μl of the fungal spore suspension was included in each test. The microtiterplates were incubated (with the lid on) in an aerated place at room temperature and under conditions of darkness for all test organisms.
# After 30 minutes of incubation (when the spores are settled on the well bottom) the optical density was measured in a microplate reader (Bio Rad 3550-UV) at 595 nm. Incubation of the microtiterplates continued until the optical density of the control microculture was between 0.250 and 0.500, which took approximately 72 hours (96 hours for V dahliae). Percentage of growth inhibition (% GI) was estimated as 100 times the ratio of the corrected absorbance of the control microculture minus the corrected absorbance of the test microculture over the corrected absorbance of the control microculture at 595 nm. The corrected absorbance values equal the absorbance at 595 nm of the culture measured after 72 or 96 hours minus the absorbance at 595 nm measured after 30 minutes.
# % GI=[(Acontrol−Atest/Acontrol]×100
# where Acontrol=(A72/96h−A30min)control
# The IC50 value is defined as the concentration that gives a 50% growth inhibition after 72 or 96 hours of incubation. The minimum inhibitory concentration (MIC) corresponds to the minimum concentration that gives 100% growth inhibition after 72 or 96 hours incubation.
# [1] = Table 3 / FIG. 6: Rs-AFP2-based 9-mer split peptides, ½ PDB, the source numbers peptides by N-terminal amino acid
# [2] = Table 3: Rs-AFP2-based 9-mer split peptides, ½ PDB, duplicate
# [3] = Table 4 / FIG. 6: Rs-AFP2-based 12-mer split peptides, ½ PDB, the source numbers peptides by N-terminal amino acid
# [4] = Table 4: Rs-AFP2-based 12-mer split peptides, ½ PDB, triplicate
# [5] = Table 13: linear β2-β3 loop MPS peptides
# [6] = Table 13: linear β2-β3 loop MPS peptides, SMF+ (1 mM Ca2+, 50 mM K+) pH5
# [7] = Table 13: linear β2-β3 loop MPS peptides, SMF+ (1 mM Ca2+, 50 mM K+) pH7
# [8] = ½ PDB, the source numbers peptides by N-terminal amino acid
# [9] = Table 6: Rs-AFP1-based 9-mer split peptides, ½ PDB
# [10] = Table 7: Rs-AFP1-based 12-mer split peptides, ½ PDB
# [11] = Table 10: medium 1/16 PDB, one test, fungus not named in Example 7
# [12] = Table 10: medium ½ PDB, one test, fungus not named in Example 7
# [13] = Table 14: 18-, 19-, 20-mer peptides with C-terminal Phe49
compound,measurement,setting,value
CC[C@H](C)[C@H](NC(=O)[C@H](CS)NC(=O)[C@H](CCC(N)=O)NC(=O)[C@H](CC(N)=O)NC(=O)[C@H](CCCCN)NC(=O)[C@H](CS)NC(=O)[C@H](C)NC(C)=O)C(=O)N[C@@H](CCCNC(=N)N)C(=O)N[C@@H](CC(C)C)C(N)=O [compound 66] (Ac-ACKNQCIRL-NH2),IC50,[1],105 µg/mL
same,MIC,[2],150 µg/mL
HGSBNYVFPAHKBIBY (Ac-HGS[Abu]NYVFPAHK[Abu]I[Abu]Y-NH2; listed as Raphanus sativus) [SEQ ID NO: 99],antifungal activity (in words),,nonactive
Ac-NQCIRLEKARHG-NH2 [compound 112],IC50,[3],149 µg/mL
same,MIC,[4],200 µg/mL
"CC[C@H](NC(=O)[C@H](CO)NC(=O)CNC(=O)[C@H](Cc1c[nH]cn1)NC(=O)[C@H](CCCNC(=N)N)NC(=O)[C@H](C)NC(=O)[C@H](CCCCN)NC(C)=O)C(=O)N[C@@H](CC(N)=O)C(=O)N[C@@H](Cc1ccc(O)cc1)C(=O)N[C@H](C(=O)N[C@@H](Cc1ccccc1)C(=O)N1CCC[C@H]1C(=O)N[C@@H](C)C(=O)N[C@@H](Cc1c[nH]cn1)C(=O)N[C@@H](CCCCN)C(=O)N[C@@H](CC)C(=O)N[C@H](C(=O)N[C@@H](CC)C(=O)N[C@@H](Cc1ccc(O)cc1)C(=O)N[C@@H](Cc1ccccc1)C(N)=O)[C@@H](C)CC)C(C)C [Peptide N1, KARHGSBNYVFPAHKBIBYF] (Ac-KARHGS[Abu]NYVFPAHK[Abu]I[Abu]YF-NH2)",IC50 1/2 PDB,[5],14.0 ± 6.2 µg/mL
same,IC50 SMF + pH5,[6],27.0 ± 7.7 μg/ml
same,IC50 SMF + pH7,[7],142.6 ± 13.6 μg/ml
Ac-YVFPAHKCI-NH2 [compound 84],IC50,[1],175 µg/mL
same,MIC,[2],400 µg/mL
same,F CULMORUM IC,[8],145 µg/mL
same,F CULMORUM MIC,[9],250 µg/mL
CC[C@H](C)[C@H](NC(=O)[C@H](CS)NC(=O)[C@H](CCC(N)=O)NC(=O)[C@H](CC(N)=O)NC(=O)[C@H](CCCCN)NC(=O)[C@H](CS)NC(=O)[C@H](C)NC(C)=O)C(=O)N[C@@H](CCCNC(=N)N)C(=O)N[C@@H](CC(C)C)C(=O)N[C@@H](CCC(=O)O)C(=O)N[C@@H](CCCCN)C(=O)N[C@@H](C)C(N)=O [compound 109] (Ac-ACKNQCIRLEKA-NH2),IC50,[3],106 µg/mL
same,MIC,[4],150 µg/mL
113 (QCIRLEKARHGS; listed as Raphanus sativus) [compound 113],IC50,[3],127 µg/mL
same,MIC,[4],200 µg/mL
same,F CULMORUM IC50,[8],362 µg/mL
same,F CULMORUM MIC,[10],400 µg/mL
"CC[C@H](C)[C@H](NC(=O)[C@H](CS)NC(=O)[C@H](CCCCN)NC(=O)[C@H](Cc1c[nH]cn1)NC(=O)[C@H](C)NC(=O)[C@@H]1CCCN1C(=O)[C@H](Cc1ccccc1)NC(=O)[C@@H](NC(=O)[C@H](Cc1ccc(O)cc1)NC(=O)[C@H](CC(N)=O)NC(=O)[C@H](CS)NC(=O)[C@H](CO)NC(=O)CNC(=O)[C@H](Cc1c[nH]cn1)NC(=O)[C@H](CCCNC(=N)N)NC(=O)[C@H](C)NC(C)=O)C(C)C)C(=O)N[C@@H](CS)C(=O)N[C@@H](Cc1ccc(O)cc1)C(=O)N[C@@H](Cc1ccccc1)C(N)=O [Peptide G1, ARHGSCNYVFPAHKCICYF] (Ac-ARHGSCNYVFPAHKCICYF-NH2)",IC50 1/2 PDB,[5],ARHGSCNYVFPAHKCICYF 17.6 ± 1.1 μg/ml
CC[C@H](C)[C@H](NC(=O)[C@H](CS)NC(=O)[C@H](CCC(N)=O)NC(=O)[C@H](CC(N)=O)NC(=O)[C@H](CCCCN)NC(=O)[C@H](CS)NC(=O)[C@H](C)NC(=O)[C@H](CC(N)=O)NC(C)=O)C(=O)N[C@@H](CCCNC(=N)N)C(=O)N[C@@H](CC(C)C)C(=O)N[C@@H](CCC(=O)O)C(=O)N[C@@H](CCCCN)C(N)=O [compound 108] (Ac-NACKNQCIRLEK-NH2),IC50,[3],150 µg/mL
same,MIC,[4],200 µg/mL
Ac-CIRLEKARH-NH2 [compound 71],IC50,[1],66 µg/mL
same,MIC,[2],100 µg/mL
CC[C@H](C)[C@H](NC(=O)[C@H](CS)NC(=O)[C@H](CCC(N)=O)NC(=O)[C@H](CC(N)=O)NC(=O)[C@H](CCCCN)NC(=O)[C@H](CS)NC(=O)[C@H](C)NC(=O)[C@H](CC(N)=O)NC(C)=O)C(=O)N[C@@H](CCCNC(=N)N)C(N)=O [compound 65] (Ac-NACKNQCIR-NH2),IC50,[1],144 µg/mL
same,MIC,[2],200 µg/mL
"CC[C@H](NC(=O)[C@H](CO)NC(=O)CNC(=O)[C@H](Cc1c[nH]cn1)NC(=O)[C@H](CCCNC(=N)N)NC(=O)[C@H](C)NC(C)=O)C(=O)N[C@@H](CC(N)=O)C(=O)N[C@@H](Cc1ccc(O)cc1)C(=O)N[C@H](C(=O)N[C@@H](Cc1ccccc1)C(=O)N1CCC[C@H]1C(=O)N[C@@H](C)C(=O)N[C@@H](Cc1c[nH]cn1)C(=O)N[C@@H](CCCCN)C(=O)N[C@@H](CC)C(=O)N[C@H](C(=O)N[C@@H](CC)C(=O)N[C@@H](Cc1ccc(O)cc1)C(=O)N[C@@H](Cc1ccccc1)C(N)=O)[C@@H](C)CC)C(C)C [Peptide G2, ARHGSBNYVFPAHKBIBYF] (Ac-ARHGS[Abu]NYVFPAHK[Abu]I[Abu]YF-NH2)","antifungal activity compared with peptide G1 (and G2), in words","19-mer peptides, Example 7",does not affect antifungal activity
same,IC50,[11],10 µg/mL
same,MIC,[11],12.5 µg/mL
same,IC50,[12],17 µg/mL
same,MIC,[12],25 µg/mL
same,IC50 1/2 PDB,[5],16.0 ± 1.2 µg/mL
same,IC50 SMF + pH5,[6],50.0 ± 6.0 μg/ml
same,IC50 SMF + pH7,[7],>400 μg/ml
"CC[C@H](NC(=O)[C@H](CO)NC(=O)CNC(=O)[C@H](Cc1c[nH]cn1)NC(=O)[C@H](CCCNC(=N)N)NC(C)=O)C(=O)N[C@@H](CC(N)=O)C(=O)N[C@@H](Cc1ccc(O)cc1)C(=O)N[C@H](C(=O)N[C@@H](Cc1ccccc1)C(=O)N1CCC[C@H]1C(=O)N[C@@H](C)C(=O)N[C@@H](Cc1c[nH]cn1)C(=O)N[C@@H](CCCCN)C(=O)N[C@@H](CC)C(=O)N[C@H](C(=O)N[C@@H](CC)C(=O)N[C@@H](Cc1ccc(O)cc1)C(=O)N[C@@H](Cc1ccccc1)C(N)=O)[C@@H](C)CC)C(C)C [Peptide P02, RHGSBNYVFPAHKBIBYF] (Ac-RHGS[Abu]NYVFPAHK[Abu]I[Abu]YF-NH2)",IC50 SMF + pH5,[13],69 ± 34 μg/ml
same,IC50 SMF + pH7,[13],133 ± 6 μg/ml
same,IC50 ½ PDB,"Table 14: 18-, 19-, 20-mer peptides with C-terminal Phe49, peptides single experiment",8.9 µg/mL
Ac-FPAHKC-NH2 [compound 40],MIC,"Table 2: Rs-AFP2-based 6-mer split peptides, ½ PDB, duplicate",100 µg/mL
Ac-NYVFPAHKC-NH2 [compound 83],IC50,[1],175 µg/mL
same,MIC,[2],250 µg/mL
same,F CULMORUM IC,[8],330 µg/mL
same,F CULMORUM MIC,[9],400 µg/mL
RHGSBNYVFPAHKBIBY (Ac-RHGS[Abu]NYVFPAHK[Abu]I[Abu]Y-NH2; listed as Raphanus sativus) [SEQ ID NO: 107],antifungal activity (in words),,very active
116 (RLEKARHGSCNY; listed as Raphanus sativus) [compound 116],IC50,[3],202 µg/mL
same,MIC,[4],400 µg/mL
same,F CULMORUM IC50,[8],359 µg/mL
same,F CULMORUM MIC,[10],400 µg/mL
Ac-KNQCIRLEKARH-NH2 [compound 111],IC50,[3],126 µg/mL
same,MIC,[4],200 µg/mL

# Reference: patent US20030226169A1, “DNA sequences encoding antifungal proteins” (priority 1995, published 2003)
